Measured values reported in PubChem BioAssay (NCI).
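Five compound concentrations were applied to cells in 96-well plates for 48 hours; endpoints were derived by simple linear interpolation of the resulting dose-response curve. TGI: total growth inhibition.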

Experiments:
Assay in all cases: NCI anticancer screen, dose series, 48 h
A549 NSCLC = tested on: A549 NSCLC
CCRF-CEM leukemia = tested on: CCRF-CEM leukemia
HL-60(TB) leukemia = tested on: HL-60(TB) leukemia
HOP-92 NSCLC = tested on: HOP-92 NSCLC
MDA-MB-435 = tested on: MDA-MB-435
NCI-H23 lung = tested on: NCI-H23 lung
NCI/ADR-RES ovarian = tested on: NCI/ADR-RES ovarian
SF-295 CNS = tested on: SF-295 CNS
U251 CNS = tested on: U251 CNS
UO-31 renal = tested on: UO-31 renal

Measured: TGI

CC(O)C(CO)NC(=O)C1CSSCC(NC(=O)C(N)Cc2ccccc2)C(=O)NC(Cc2ccccc2)C(=O)NC(Cc2c[nH]c3ccccc23)C(=O)NC(CCCCN)C(=O)NC(C(C)O)C(=O)N1 (stereo not given)
> 100 µM: A549 NSCLC | CCRF-CEM leukemia | HL-60(TB) leukemia | HOP-92 NSCLC | MDA-MB-435 | NCI-H23 lung | NCI/ADR-RES ovarian | SF-295 CNS | U251 CNS | UO-31 renal
